Experimental data taken from PMC4816952, “[^18F]FE@SNAP—a specific PET tracer for melanin-concentrating hormone receptor 1 imaging?” (EJNMMI Research, 2016).
Marks after values point to notes of the source that are not given here.

Legend:
MCHR1 [1] = molecular target: T1, MCHR1 (Rattus norvegicus, UniProt P97639); assay: Preliminary small-animal PET/MR imaging; type: in vivo; design: from tissue; host or cells: living rat (in vivo PET imaging); details: healthy anaesthetized rat, baseline conditions, tail vein bolus
T1 sequence (P97639 whole entry): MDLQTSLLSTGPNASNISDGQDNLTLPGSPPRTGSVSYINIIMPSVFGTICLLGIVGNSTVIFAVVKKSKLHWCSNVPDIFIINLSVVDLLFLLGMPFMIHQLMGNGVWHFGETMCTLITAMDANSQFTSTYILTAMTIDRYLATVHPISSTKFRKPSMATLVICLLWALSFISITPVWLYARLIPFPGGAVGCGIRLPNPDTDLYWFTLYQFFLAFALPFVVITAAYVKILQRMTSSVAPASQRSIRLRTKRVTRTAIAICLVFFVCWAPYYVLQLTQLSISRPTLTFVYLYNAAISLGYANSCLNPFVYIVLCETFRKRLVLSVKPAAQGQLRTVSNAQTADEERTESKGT
Protocol: An anaesthetized rat (with 1.5–2.5 % isoflurane) was immobilized in a multimodal animal carrier unit (MACU; medres®—medical research GmbH, Cologne, Germany) and maintained at a body temperature of 37 °C throughout the whole experiment. [^18F]FE@SNAP (47.64 ± 1.23 MBq) was injected as a bolus via the lateral tail vein, and dynamic PET imaging (Siemens Inveon preclinical μPET/SPECT/CT system) was performed over 60 min. Immediately afterwards, T1-weighted high-resolution axial, coronary and sagittal brain MRI scans were performed using a Bruker BioSpec 94/30 USR small-animal MR system (Bruker BioSpin GmbH, Karlsruhe, Germany).

human MCHR1 = molecular target: human MCHR1; design: method as in PMID 24106662; details: CHO cells expressing the human MCHR1; cited from earlier work
MCHR2 = molecular target: MCHR2; design: method as in PMID 24106662; details: second MCH receptor; cited from earlier work
[2] = Blood metabolite analysis by radio-TLC; type: in vivo, Sprague-Dawley rats; details: 45 min after tracer application, baseline group, n = 3, plasma
Protocol: For analysis of potential circulating metabolites, blood samples from the baseline group were collected into heparinized tubes and immediately stored on ice before processing. The blood was centrifuged (Hettich Rotanta/TRC; 3400×g, 4 min) to separate cellular components. Sample cleanup was performed by vortexing plasma with the equivalent amount of acetonitrile and by subsequent centrifugation (Hettich Universal 30RF; 23,000×g, 3 min) to remove precipitated proteins. The obtained supernatant was applied to radio-thin-layer chromatography (radio-TLC silica gel plates, mobile phase acetonitrile/water 70/30 v/v, application volume 2 μL on origin) and analysed via a Canberra-Packard Instant Imager.

MCHR1 [3] = molecular target: T1, MCHR1; assay: Ex vivo brain autoradiography after IV injection into the jugular vein of awake rats; type: in vivo, Sprague-Dawley rats; design: from tissue; host or cells: rat brain (hypothalamus, ventricular system) and peripheral organs after in vivo injection; details: for Ratio Hypothalamus/non-target / Ratio Ventricle/non-target: ratio of ROIs (DLU/mm^2), 45 min after injection, n = 3
Protocol: (§1) Conscious and freely moving rats of the baseline and blocking groups were always examined simultaneously: rats of the baseline group (n = 3) received vehicle (400 μL), and rats of the blocking group (n = 3) received SNAP-7941 (15 mg/kg; freshly dissolved in 400 μL) via the jugular vein 30 min prior to tracer application. Via the jugular vein, 51.33 ± 26.2 MBq of [^18F]FE@SNAP (specific activity 12.3–43.1 GBq/μmol; radiochemical purity ≥95 %; 30–100 μL) was then administered to all rats. After 45 min, rats were sacrificed by IV ketamine injection and decapitated, and the brains were removed and immediately quick frozen in isopentane (−45 °C) for ex vivo autoradiography. Other organs including the eyes, tongue, muscle, epidermal white adipose tissue (WATep), heart, lung, stomach, pancreas, liver, duodenum, colon, spleen, kidneys, adrenals, testis, bladder and bone as well as blood and urine were removed, weighed and measured in a gamma counter (2480 WIZARD^2, PerkinElmer). Radioactivity concentrations were normalized to dose and weight and expressed as percent injected dose per gram (%ID/g). To determine significant differences, a two-tailed t test with […] was performed using the statistics add-on in Microsoft Excel® 2013. A value of P < 0.05 was considered as significant.
Whole rat brains (n = 6) were cut in a cryo-microtome (Microm HM 560, Thermo Scientific) into 50-μm-thick slices and thaw-mounted onto superfrost slides (Menzel-Gläser SUPERFROST® PLUS, Thermo Scientific). Samples were placed on Phosphor Imager plates (Multisensitive Phosphor Screens Long Type MS, PPN 7001724, PerkinElmer) for an exposure period of 18 h and then analysed with a Cyclone Phosphor Imager (Cyclone Plus Storage Phosphor System, PerkinElmer). Data analysis was performed with OptiQuant® data processing software Version 5.0. Due to high-MCHR1 appearance, special emphasis was laid on the hypothalamus and the ventricular system. […] To facilitate comparison, manually defined template ROIs fitting to all slices (30 slices/brain; bregma −1.0 to −2.5 mm) were applied. […] In detail, ratios of hypothalamus/non-target and ventricle/non-target were calculated. Significant differences were calculated as described before.
Fig. 2 Scheme of the ROIs for calculation of ratios. 1 (yellow): ventricular system; 2 (green): hypothalamic area; 3 (pink): non-target region; and 4 (orange): whole brain. It is noteworthy that ROIs 1 and 2 include the target areas as well as some background areas, due to varying target size throughout the different brain levels (bregma)

[4] = Biodistribution 45 min after IV injection; type: in vivo, Sprague-Dawley rats; details: rats, 45 min after injection
Protocol: as §1

[5] = blocking with SNAP-7941 15 mg/kg 30 min prior

parent compound in the blood [2]: 51.50 ± 5.5% | Ratio Hypothalamus/non-target (MCHR1 [3]; baseline (vehicle)): 2.14 ± 0.9 | Ratio Ventricle/non-target (MCHR1 [3]; baseline (vehicle)): 2.20 ± 0.4 | whole-brain uptake, blocking group versus baseline animals (MCHR1 [3]; blocking with 15 mg/kg SNAP-7941, n = 3 per group): significantly higher | Ratio Hypothalamus/non-target (MCHR1 [3]; [5]): 1.58 ± 0.5^a | Ratio Ventricle/non-target (MCHR1 [3]; [5]): 1.38 ± 0.2^a | defluorination / uptake of ^18F-fluoride into the bone [4]: no defluorination
Structure (SMILES): COCC1=C(C(=O)OCC[18F])C(c2ccc(F)c(F)c2)N(C(=O)NCCCN2CCC(c3cccc(NC(C)=O)c3)CC2)C(=O)N1 (stereo not shown) [[^18F]FE@SNAP]
tracer uptake in brain (small-animal PET) (MCHR1 [1]): high tracer uptake in the ventricular system | Kd (human MCHR1): 2.9 nM | Ki (MCHR2): > 1000 nM
